Test results from ChEMBL document CHEMBL1201862, “PubChem BioAssay data set” (2004).
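Where inhibition never reached the appropriate level, the endpoint shown equals the highest concentration tested. Otherwise, values were interpolated linearly from a five-concentration, 48-hour dose response in 96-well plates. The concentration for 50% growth inhibition is given as GI50.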 Activity calls are given as the source filed them. Cut-off read from the data, not from the text of the source: active = GI50 up to about 1.1 µM and inactive = higher.

How the values were obtained:
Assay in all cases: inhibition of tumour cell growth, NCI panel, 48 h
A498 = system: A498
KM12 = system: KM12
RXF 631 = system: RXF 631
HT-29 = system: HT-29
DMS-114 = system: DMS-114
A549 = system: A549
DMS-273 = system: DMS-273
SN12C = system: SN12C
KM-20L2 = system: KM-20L2
RPMI-8226 = system: RPMI-8226
SF-268 = system: SF-268
OVCAR-3 = system: OVCAR-3
HL-60 = system: HL-60
OVCAR-4 = system: OVCAR-4
SK-MEL-5 = system: SK-MEL-5
SF-539 = system: SF-539
OVCAR-5 = system: OVCAR-5
SK-MEL-28 = system: SK-MEL-28
NCI-H522 = system: NCI-H522
M19-MEL = system: M19-MEL
HOP-18 = system: HOP-18
EKVX = system: EKVX
TK-10 = system: TK-10
MOLT-4 = system: MOLT-4
HOP-92 = system: HOP-92
NCI-H460 = system: NCI-H460
COLO 205 = system: COLO 205
SK-OV-3 = system: SK-OV-3
ACHN = system: ACHN
XF498 = system: XF498
IGROV-1 = system: IGROV-1
SK-MEL-2 = system: SK-MEL-2
M14 = system: M14
SNB-19 = system: SNB-19
SF-295 = system: SF-295
K562 = system: K562
SR = system: SR
SNB-78 = system: SNB-78
HCT-15 = system: HCT-15
UACC-257 = system: UACC-257
LXFL 529 = system: LXFL 529
NCI-H226 = system: NCI-H226
786-0 = system: 786-0
U-251 = system: U-251
SW-620 = system: SW-620
UACC-62 = system: UACC-62
DLD-1 = system: DLD-1
UO-31 = system: UO-31
OVCAR-8 = system: OVCAR-8
LOX IMVI = system: LOX IMVI
CAKI-1 = system: CAKI-1
Malme-3M = system: Malme-3M
HCC 2998 = system: HCC 2998
CCRF-CEM = system: CCRF-CEM
RXF 393 = system: RXF 393
NCI-H23 = system: NCI-H23
SNB-75 = system: SNB-75
HOP-62 = system: HOP-62
HCT-116 = system: HCT-116

Cc1c(C(=O)C/C(=N/NC(=O)CC#N)C(N)=O)[n+]([O-])c2ccccc2[n+]1[O-]
GI50 (A498): > 100 µM (inactive) | GI50 (KM12): 28 µM (inactive) | GI50 (RXF 631): 87.3 µM (inactive) | GI50 (HT-29): 78 µM (inactive) | GI50 (DMS-114): 23.8 µM (inactive) | GI50 (A549): > 100 µM (inactive) | GI50 (DMS-273): 42 µM (inactive) | GI50 (SN12C): 30.2 µM (inactive) | GI50 (KM-20L2): 45.2 µM (inactive) | GI50 (RPMI-8226): 33.9 µM (inactive) | GI50 (SF-268): 34.3 µM (inactive) | GI50 (OVCAR-3): 22.9 µM (inactive) | GI50 (HL-60): 17.7 µM (inactive) | GI50 (OVCAR-4): 32.7 µM (inactive) | GI50 (SK-MEL-5): 40.6 µM (inactive) | GI50 (SF-539): 37.8 µM (inactive) | GI50 (OVCAR-5): > 100 µM (inactive) | GI50 (SK-MEL-28): > 100 µM (inactive) | GI50 (NCI-H522): 19.8 µM (inactive) | GI50 (M19-MEL): 21.8 µM (inactive) | GI50 (HOP-18): > 100 µM (inactive) | GI50 (EKVX): > 100 µM (inactive) | GI50 (TK-10): > 100 µM (inactive) | GI50 (MOLT-4): 35.6 µM (inactive) | GI50 (HOP-92): > 100 µM (inactive) | GI50 (NCI-H460): 38.4 µM (inactive) | GI50 (COLO 205): 34.6 µM (inactive) | GI50 (SK-OV-3): > 100 µM (inactive) | GI50 (ACHN): 54 µM (inactive) | GI50 (XF498): > 100 µM (inactive) | GI50 (IGROV-1): 20.5 µM (inactive) | GI50 (SK-MEL-2): > 100 µM (inactive) | GI50 (M14): 34.5 µM (inactive) | GI50 (SNB-19): > 100 µM (inactive) | GI50 (SF-295): > 100 µM (inactive) | GI50 (K562): 52.1 µM (inactive) | GI50 (SR): 46.1 µM (inactive) | GI50 (SNB-78): 88.3 µM (inactive) | GI50 (HCT-15): 25.9 µM | GI50 (UACC-257): 35.9 µM (inactive) | GI50 (LXFL 529): 74.1 µM (inactive) | GI50 (NCI-H226): > 100 µM (inactive) | GI50 (786-0): > 100 µM (inactive) | GI50 (U-251): 35.7 µM (inactive) | GI50 (SW-620): 17.7 µM (inactive) | GI50 (UACC-62): 33 µM (inactive) | GI50 (DLD-1): 29.1 µM (inactive) | GI50 (UO-31): > 100 µM (inactive) | GI50 (OVCAR-8): 34.2 µM (inactive) | GI50 (LOX IMVI): 34.3 µM (inactive) | GI50 (CAKI-1): > 100 µM (inactive) | GI50 (Malme-3M): 32.3 µM (inactive) | GI50 (HCC 2998): 39.5 µM (inactive) | GI50 (CCRF-CEM): 35.1 µM (inactive) | GI50 (RXF 393): > 100 µM (inactive) | GI50 (NCI-H23): 83.6 µM (inactive) | GI50 (SNB-75): > 100 µM (inactive) | GI50 (HOP-62): > 100 µM (inactive) | GI50 (HCT-116): 28.1 µM (inactive)
